Test [1] has as its system poly(A) (RNA, polymer) A. The test is described as follows: absorbance titration. The following applies: Na+ (NaCl 0.1 M), NaCac 2.5 mM, pH 7.0.
The subject of test [2] is poly(A)poly(U) (RNA, polymer) A/U. Briefly: absorbance titration. The settings on record: Na+ (NaCl 0.1 M), NaCac 2.5 mM.
Test [3] relates to Tel-23 (DNA telomeric G4) (DNA, G4) TAGGGTTAGGGTTAGGGTTAGGG
Briefly: absorbance titration.

The subject of test [4] is poly(A)2poly(U) (RNA triple helix) (RNA, polymer) A/U. The test is described as follows: absorbance titration. The settings on record: Na+ (NaCl 0.1 M); NaCac 2.5 mM, pH 7.0.
The target in test [5] is T1, bovine serum albumin (BSA) (Bos taurus, UniProt P02769).
T1 construct: gene ALB
T1 sequence (P02769 25-607): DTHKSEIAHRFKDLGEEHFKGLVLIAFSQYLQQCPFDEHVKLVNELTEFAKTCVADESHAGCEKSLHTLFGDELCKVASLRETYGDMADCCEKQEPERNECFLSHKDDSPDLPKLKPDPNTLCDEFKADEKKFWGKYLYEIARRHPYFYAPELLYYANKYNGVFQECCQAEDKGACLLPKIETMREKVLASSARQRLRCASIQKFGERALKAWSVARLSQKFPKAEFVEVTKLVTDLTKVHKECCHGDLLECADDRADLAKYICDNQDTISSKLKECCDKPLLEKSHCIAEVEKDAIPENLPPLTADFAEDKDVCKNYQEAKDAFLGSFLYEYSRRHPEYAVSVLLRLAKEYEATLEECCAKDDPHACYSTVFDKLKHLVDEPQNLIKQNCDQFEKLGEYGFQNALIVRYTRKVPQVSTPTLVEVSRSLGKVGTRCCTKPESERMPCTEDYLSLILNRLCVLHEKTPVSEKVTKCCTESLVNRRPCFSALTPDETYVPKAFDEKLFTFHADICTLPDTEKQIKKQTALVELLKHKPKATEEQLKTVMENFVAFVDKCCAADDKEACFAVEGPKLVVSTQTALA
Briefly: BSA intrinsic fluorescence quenching titration ([…] °C), […] model; no adduct by ESI-MS. Format: binding.

With `CCN1[C]N(Cc2c3ccccc3cc3ccccc23)C=C1.CCN1[C]N(Cc2c3ccccc3cc3ccccc23)C=C1.[Au+]`, the binding entry in test [1] (external binding, fit not converging) is on record as “yes”; in test [2] (pH 7.0, external binding, fit not converging), “yes”; in test [3] (unselective outer binding, fit not converging), “yes”.

Take `CCN1[C]N(Cc2c3ccccc3cc3ccccc23)C=C1.CCN1[C]N(Cc2c3ccccc3cc3ccccc23)C=C1.[Ag+]`: the binding entry was “no” in test [1]; “weak” in test [3] (very slight spectral variations, conclusions state no interaction); “no” in test [4]. The “Kpoly(A)poly(U)” value in test [2] (pH 7.0, 25.0 °C, apparent, per base pair, per base) was “(1.5 ± 3) × 10^3 M^-1”.

Consider `CCn1ccn(Cc2c3ccccc3cc3ccccc23)[c]1=[Ag]([Cl])=[c]1n(CC)ccn1Cc1c2ccccc2cc2ccccc12` [[Ag(EIA)2]Cl, bis(1-(anthracen-9-ylmethyl)-3-ethylimidazol-2-ylidene) silver chloride], for which the “BSA intrinsic fluorescence quenching titration (15-50 °C), 1:1 model; no adduct” value in test [5] is “the silver complex interacts with the protein but with a reversible weak process based on electrostatics”.

The values are drawn from article PMC7699860 (Molecules, 2020).
